# Laboratory results: the supplement of paper PMC10307832
# Legend:
# Experiment in all cases: relative viability (nuclei count vs DMSO), 5 days (fraction); higher = more cells survive
# [1] = compound: C/C(=N\NC(=S)N1CCC1)/C2=CC=CC=N2
# Procedure, shortened: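 Hoechst staining, done together with fixation and permeabilisation, marked nuclei for 4× imaging and MetaXpress counting. This followed 5 days without medium change after lung cancer cell lines, kept overnight at 37 °C in 1536-well plates, were pinned with five library-drug doses (not always all listed) spaced by √10 on vehicle-anchored plates. Viability is the ratio of treated-well to vehicle-well nuclei, expressed as a median across plates. Plates passed only at control CV below 25% with at least one doubling.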
# [2] = compound: C/C(=N\NC(=S)N1CCC1)/C2=CC=CC=N2 + Cc1cc(Nc2cc(N3CCN(C)CC3)nc(Sc3ccc(NC(=O)C4CC4)cc3)n2)n[nH]1 [Tozasertib] (partner 0.1 µM)
# Procedure, shortened: (§1)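 A single step with final 0.05% Triton X-100, 1% formaldehyde and 1 ug/ml Hoechst fixed the cells and stained nuclei 5 days after treatment. Lung cancer cell lines in 1536-well plates had been treated by pin tool the day after seeding with one drug alone or a fixed anchor-drug dose plus five library-drug doses (not always all listed) in √10 steps, and nuclei were counted on 4× images. Relative viability is the ratio of nuclei in treated wells to nuclei in vehicle wells, taken as the median of duplicate plates.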
# [3] = compound: C/C(=N\NC(=S)N1CCC1)/C2=CC=CC=N2 + COc1cc2c(Oc3ccc(NC(=O)C4(C(=O)Nc5ccc(F)cc5)CC4)cc3F)ccnc2cc1OCCCN1CCOCC1 [Foretinib] (partner 0.25 µM)
# Procedure, shortened: as §1
# [4] = compound: C/C(=N\NC(=S)N1CCC1)/C2=CC=CC=N2 + Nc1nc2[nH]cc(CCc3ccc(C(=O)N[C@@H](CCC(=O)O)C(=O)O)cc3)c2c(=O)[nH]1 [Pemetrexed] (partner 0.2 µM)
# Procedure, shortened: as §1
# [5] = compound: C/C(=N\NC(=S)N1CCC1)/C2=CC=CC=N2 + CC(=O)c1c(C)c2cnc(Nc3ccc(N4CCNCC4)cn3)nc2n(C2CCCC2)c1=O [Palbociclib] (partner 0.5 µM)
# Procedure, shortened: as §1
# [6] = compound: C/C(=N\NC(=S)N1CCC1)/C2=CC=CC=N2 + Cc1nc(Nc2ncc(C(=O)Nc3c(C)cccc3Cl)s2)cc(N2CCN(CCO)CC2)n1 [Dasatinib] (partner 0.075 µM)
# Procedure, shortened: as §1
# [7] = compound: C/C(=N\NC(=S)N1CCC1)/C2=CC=CC=N2 + O=C(c1cc(Cc2n[nH]c(=O)c3ccccc23)ccc1F)N1CCN(C(=O)C2CC2)CC1 [Olaparib] (partner 8 µM)
# Procedure, shortened: as §1
# [8] = compound: C/C(=N\NC(=S)N1CCC1)/C2=CC=CC=N2 + CCNC(=O)c1noc(-c2cc(C(C)C)c(O)cc2O)c1-c1ccc(CN2CCOCC2)cc1 [Luminespib] (partner 0.01 µM)
# Procedure, shortened: as §1
# [9] = compound: C/C(=N\NC(=S)N1CCC1)/C2=CC=CC=N2 + Nc1ncn([C@H]2C[C@H](O)[C@@H](CO)O2)c(=O)n1 [Decitabine] (partner 2 µM)
# Procedure, shortened: as §1
# [10] = compound: C/C(=N\NC(=S)N1CCC1)/C2=CC=CC=N2 + COc1cccc2cc(-c3nc([C@H]4CC[C@H](C(=O)O)CC4)n4ncnc(N)c34)[nH]c12 [OSI-027] (partner 0.5 µM)
# Procedure, shortened: as §1
# [11] = compound: C/C(=N\NC(=S)N1CCC1)/C2=CC=CC=N2 + N=C(N)NC(=N)NCCc1ccccc1 [Phenformin] (partner 250 µM)
# Procedure, shortened: as §1
# [12] = compound: C/C(=N\NC(=S)N1CCC1)/C2=CC=CC=N2 + NC(=O)Nc1cc(-c2cccc(F)c2)sc1C(=O)N[C@H]1CCCNC1 [AZD7762] (partner 0.2 µM)
# Procedure, shortened: as §1
# [13] = compound: C/C(=N\NC(=S)N1CCC1)/C2=CC=CC=N2 + O=C(CCCCCCC(=O)Nc1ccccc1)NO [Vorinostat] (partner 1 µM)
# Procedure, shortened: as §1
# [14] = compound: C/C(=N\NC(=S)N1CCC1)/C2=CC=CC=N2 + CC(=O)Nc1cccc(-n2c(=O)n(C3CC3)c(=O)c3c(Nc4ccc(I)cc4F)n(C)c(=O)c(C)c32)c1 [Trametinib] (partner 0.02 µM)
# Procedure, shortened: as §1
# [15] = compound: C/C(=N\NC(=S)N1CCC1)/C2=CC=CC=N2 + CS(=O)(=O)N1CCN(Cc2cc3nc(-c4cccc5[nH]ncc45)nc(N4CCOCC4)c3s2)CC1 [Pictilisib] (partner 1 µM)
# Procedure, shortened: as §1
# [16] = compound: C/C(=N\NC(=S)N1CCC1)/C2=CC=CC=N2 + CS(=O)(=O)CCNCc1ccc(-c2ccc3ncnc(Nc4ccc(OCc5cccc(F)c5)c(Cl)c4)c3c2)o1 [Lapatinib] (partner 2 µM)
# Procedure, shortened: as §1
# [17] = compound: C/C(=N\NC(=S)N1CCC1)/C2=CC=CC=N2 + C[C@]1(O)C[C@@H](c2nc(-c3ccc4ccc(-c5ccccc5)nc4c3)c3c(N)nccn32)C1 [Linsitinib] (partner 1 µM)
# Procedure, shortened: as §1
# [18] = compound: C/C(=N\NC(=S)N1CCC1)/C2=CC=CC=N2 + C[C@@H](Oc1cc(-c2cnn(C3CCNCC3)c2)cnc1N)c1c(Cl)ccc(F)c1Cl [Crizotinib] (partner 1 µM)
# Procedure, shortened: as §1
# [19] = compound: C/C(=N\NC(=S)N1CCC1)/C2=CC=CC=N2 + CC(C)C[C@H](NC(=O)[C@H](Cc1ccccc1)NC(=O)c1cnccn1)B(O)O [Bortezomib] (partner 0.002 µM)
# Procedure, shortened: as §1
# [20] = compound: C/C(=N\NC(=S)N1CCC1)/C2=CC=CC=N2 + Cc1nc(NC(=O)N2CCC[C@H]2C(N)=O)sc1-c1ccnc(C(C)(C)C(F)(F)F)c1 [Alpelisib] (partner 2 µM)
# Procedure, shortened: as §1
# [21] = compound: C/C(=N\NC(=S)N1CCC1)/C2=CC=CC=N2 + CC1(C)CCC(c2ccc(Cl)cc2)=C(CN2CCN(c3ccc(C(=O)NS(=O)(=O)c4ccc(N[C@H](CCN5CCOCC5)CSc5ccccc5)c(S(=O)(=O)C(F)(F)F)c4)cc3)CC2)C1 [Navitoclax] (partner 0.5 µM)
# Procedure, shortened: as §1
cell line,measurement,setting,value
SW 900,relative viability,[1]; 0.05 µM,0.147
same,relative viability,[1]; 0.1581 µM,0.135
same,relative viability,[1]; 0.5 µM,0.0841
same,relative viability,[1]; 1.581 µM,0.127
same,relative viability,[1]; 5 µM,0.188
same,relative viability,[2]; first compound 0.05 µM,0.155
same,relative viability,[2]; first compound 0.1581 µM,0.107
same,relative viability,[2]; first compound 0.5 µM,0.0961
same,relative viability,[2]; first compound 1.581 µM,0.14
same,relative viability,[2]; first compound 5 µM,0.178
same,relative viability,[3]; first compound 0.05 µM,0.117
same,relative viability,[3]; first compound 0.1581 µM,0.114
same,relative viability,[3]; first compound 0.5 µM,0.0636
same,relative viability,[3]; first compound 1.581 µM,0.068
same,relative viability,[3]; first compound 5 µM,0.15
same,relative viability,[4]; first compound 0.05 µM,0.127
same,relative viability,[4]; first compound 0.1581 µM,0.081
same,relative viability,[4]; first compound 0.5 µM,0.0901
same,relative viability,[4]; first compound 1.581 µM,0.122
same,relative viability,[4]; first compound 5 µM,0.196
same,relative viability,[5]; first compound 0.05 µM,0.171
same,relative viability,[5]; first compound 0.1581 µM,0.136
same,relative viability,[5]; first compound 0.5 µM,0.134
same,relative viability,[5]; first compound 1.581 µM,0.175
same,relative viability,[5]; first compound 5 µM,0.197
same,relative viability,[6]; first compound 0.05 µM,0.129
same,relative viability,[6]; first compound 0.1581 µM,0.134
same,relative viability,[6]; first compound 0.5 µM,0.112
same,relative viability,[6]; first compound 1.581 µM,0.0964
same,relative viability,[6]; first compound 5 µM,0.248
same,relative viability,[7]; first compound 0.05 µM,0.233
same,relative viability,[7]; first compound 0.1581 µM,0.116
same,relative viability,[7]; first compound 0.5 µM,0.135
same,relative viability,[7]; first compound 1.581 µM,0.164
same,relative viability,[7]; first compound 5 µM,0.16
same,relative viability,[8]; first compound 0.05 µM,0.162
same,relative viability,[8]; first compound 0.1581 µM,0.144
same,relative viability,[8]; first compound 0.5 µM,0.106
same,relative viability,[8]; first compound 1.581 µM,0.124
same,relative viability,[8]; first compound 5 µM,0.184
same,relative viability,[9]; first compound 0.05 µM,0.21
same,relative viability,[9]; first compound 0.1581 µM,0.231
same,relative viability,[9]; first compound 0.5 µM,0.16
same,relative viability,[9]; first compound 1.581 µM,0.201
same,relative viability,[9]; first compound 5 µM,0.17
same,relative viability,[10]; first compound 0.05 µM,0.0629
same,relative viability,[10]; first compound 0.1581 µM,0.1
same,relative viability,[10]; first compound 0.5 µM,0.0605
same,relative viability,[10]; first compound 1.581 µM,0.0573
same,relative viability,[10]; first compound 5 µM,0.119
same,relative viability,[11]; first compound 0.05 µM,0.0993
same,relative viability,[11]; first compound 0.1581 µM,0.114
same,relative viability,[11]; first compound 0.5 µM,0.105
same,relative viability,[11]; first compound 1.581 µM,0.0942
same,relative viability,[11]; first compound 5 µM,0.147
same,relative viability,[12]; first compound 0.05 µM,0.188
same,relative viability,[12]; first compound 0.1581 µM,0.122
same,relative viability,[12]; first compound 0.5 µM,0.0988
same,relative viability,[12]; first compound 1.581 µM,0.188
same,relative viability,[12]; first compound 5 µM,0.171
same,relative viability,[13]; first compound 0.05 µM,0.145
same,relative viability,[13]; first compound 0.1581 µM,0.149
same,relative viability,[13]; first compound 0.5 µM,0.0776
same,relative viability,[13]; first compound 1.581 µM,0.125
same,relative viability,[13]; first compound 5 µM,0.183
same,relative viability,[14]; first compound 0.05 µM,0.125
same,relative viability,[14]; first compound 0.1581 µM,0.165
same,relative viability,[14]; first compound 0.5 µM,0.137
same,relative viability,[14]; first compound 1.581 µM,0.142
same,relative viability,[14]; first compound 5 µM,0.168
NCI-H1299,relative viability,[1]; 0.05 µM,0.1
same,relative viability,[1]; 0.1581 µM,0.12
same,relative viability,[1]; 0.5 µM,0.186
same,relative viability,[1]; 1.581 µM,0.185
same,relative viability,[1]; 5 µM,0.145
same,relative viability,[3]; first compound 0.05 µM,0.107
same,relative viability,[3]; first compound 0.1581 µM,0.133
same,relative viability,[3]; first compound 0.5 µM,0.191
same,relative viability,[3]; first compound 1.581 µM,0.187
same,relative viability,[3]; first compound 5 µM,0.117
same,relative viability,[15]; first compound 0.05 µM,0.0583
same,relative viability,[15]; first compound 0.1581 µM,0.0875
same,relative viability,[15]; first compound 0.5 µM,0.103
same,relative viability,[15]; first compound 1.581 µM,0.0673
same,relative viability,[15]; first compound 5 µM,0.0511
same,relative viability,[7]; first compound 0.05 µM,0.111
same,relative viability,[7]; first compound 0.1581 µM,0.144
same,relative viability,[7]; first compound 0.5 µM,0.183
same,relative viability,[7]; first compound 1.581 µM,0.167
same,relative viability,[7]; first compound 5 µM,0.15
same,relative viability,[16]; first compound 0.05 µM,0.192
same,relative viability,[16]; first compound 0.1581 µM,0.221
same,relative viability,[16]; first compound 0.5 µM,0.197
same,relative viability,[16]; first compound 1.581 µM,0.185
same,relative viability,[16]; first compound 5 µM,0.143
same,relative viability,[17]; first compound 0.05 µM,0.0879
same,relative viability,[17]; first compound 0.1581 µM,0.112
same,relative viability,[17]; first compound 0.5 µM,0.133
same,relative viability,[17]; first compound 1.581 µM,0.152
same,relative viability,[17]; first compound 5 µM,0.145
same,relative viability,[18]; first compound 0.05 µM,0.16
same,relative viability,[18]; first compound 0.1581 µM,0.16
same,relative viability,[18]; first compound 0.5 µM,0.191
same,relative viability,[18]; first compound 1.581 µM,0.19
same,relative viability,[18]; first compound 5 µM,0.102
same,relative viability,[19]; first compound 0.05 µM,0.111
same,relative viability,[19]; first compound 0.1581 µM,0.155
same,relative viability,[19]; first compound 0.5 µM,0.206
same,relative viability,[19]; first compound 1.581 µM,0.209
same,relative viability,[19]; first compound 5 µM,0.138
same,relative viability,[20]; first compound 0.05 µM,0.094
same,relative viability,[20]; first compound 0.1581 µM,0.195
same,relative viability,[20]; first compound 0.5 µM,0.213
same,relative viability,[20]; first compound 1.581 µM,0.213
same,relative viability,[20]; first compound 5 µM,0.15
same,relative viability,[21]; first compound 0.05 µM,0.0935
same,relative viability,[21]; first compound 0.1581 µM,0.128
same,relative viability,[21]; first compound 0.5 µM,0.17
same,relative viability,[21]; first compound 1.581 µM,0.178
same,relative viability,[21]; first compound 5 µM,0.124
